In patent publication US10953015B2, “Use of adenosine receptor signaling to regulate P-gp function” (CORNELL UNIVERSITY, priority 2016, dated 2021):

Assays:
MMP9 [1] = assay: MMP9 expression in HBMVEC (western blot, IFA); assay type: cell-based, human; conditions: western blot and IFA
From the text: FIG. 8A is a schematic diagram of the experimental procedure for analysis of Lexiscan®'s effect on P-gp solubility and excretion in primary brain endothelial cells (“HBMVEC”). FIGS. 8B-8C are western blots and graphs summarizing the experimental result of each western blot. FIGS. 8B-8C show the analysis of P-gp expression of HBMVEC upon activation with Lexiscan® at different time points after lysis with RIPA buffer (FIG. 8B) or CSK buffer to measure P-gp levels in the cytoskeletal fraction (FIG. 8C). Band intensity was normalized to GAPDH and graphed. […] Band intensity was normalized using GAPDH and plotted. FIG. 8E is a western blot of secreted P-gp in HBMVEC upon activation with Lexiscan® in absence or presence of an MMP9 inhibitor: both short and long exposures of western blot from MMP9 inhibitor-treated samples are shown. Band intensity was plotted as a graph. […] FIG. 8H is a graph summarizing the intensity of fluorescence of MMP9 from FIG. 8G. Fluorescent intensity of MMP9 was quantified and plotted as graph (n=20). **P<0.01 (2-tailed Student's t test, 1 representative result of 3 different experiments).
(§1) HCMEC-D3 and HBMVEC cells were plated in 12-well plates and were grown until they reached 100% confluency. […] The intensity of band was analyzed with densitometric analysis and plotted as a graph for analysis of time-course effect of AR signaling on P-gp expression.

P-gp [2] = assay: P-gp expression in intestinal organoids (mean fluorescence intensity); assay type: cell-based; conditions: organoids from C57BL6 mouse intestine; 1 μM; 15 minutes
Procedure: Freshly isolated intestines from wildtype […] mice were cultured and grown to confluency to generate Organoids, which are 3D organotypic cultures derived from primary intestinal tissues (either tissue subunits or single cells), embryonic stem cells (“ESCs”), and induced pluripotent stem cells (“iPSCs”). Organoids were treated with 1 μM Lexiscan® or A1193 (A2A AR agonist) for 15 minutes, washed, and stained with antibodies to P-gp and DAPI. Mean fluorescent intensity was measured in each organoid. Data presented as a measure of P-gp expression between the two agonists. *=significance where P<0.05.
Applicants next evaluated whether A2A AR agonists can modulate P-gp expression in gut epithelial cells. Freshly isolated intestines from wildtype C57BL6 mice were cultured and grown to confluency to generate Organoids, which are three-dimensional organotypic cultures derived from primary intestinal tissues (either tissue subunits or single cells), embryonic stem cells (“ESCs”), or induced pluripotent stem cells (“iPSCs”). Organoids were treated with the A2A AR agonists Lexiscan® or A1193 for 15 minutes, washed, and stained with antibodies to P-gp and DAPI.

P-gp and MMP9 = assay: Immunoprecipitation/IFA of P-gp with MMP9 in HBMVEC; assay type: cell-based, human; conditions: 1 μM for 5 minutes
From the text: FIG. 8A is a schematic diagram of the experimental procedure for analysis of Lexiscan®'s effect on P-gp solubility and excretion in primary brain endothelial cells (“HBMVEC”). FIGS. 8B-8C are western blots and graphs summarizing the experimental result of each western blot. FIGS. 8B-8C show the analysis of P-gp expression of HBMVEC upon activation with Lexiscan® at different time points after lysis with RIPA buffer (FIG. 8B) or CSK buffer to measure P-gp levels in the cytoskeletal fraction (FIG. 8C). Band intensity was normalized to GAPDH and graphed. […] Band intensity was normalized using GAPDH and plotted. FIG. 8E is a western blot of secreted P-gp in HBMVEC upon activation with Lexiscan® in absence or presence of an MMP9 inhibitor: both short and long exposures of western blot from MMP9 inhibitor-treated samples are shown. Band intensity was plotted as a graph. FIG. 8F is a western blot showing the results of an Immunoprecipitation assay of MMP9 with lysate from HBMVEC treated with vehicle (control) or 1 μM of Lexiscan® for 5 minutes. P-gp was pulled down using anti-P-gp antibody and immunoblotted with an anti-MMP9 antibody. […] FIG. 8H is a graph summarizing the intensity of fluorescence of MMP9 from FIG. 8G. Fluorescent intensity of MMP9 was quantified and plotted as graph (n=20). **P<0.01 (2-tailed Student's t test, 1 representative result of 3 different experiments). […]

P-gp [3] = assay: P-gp expression in brain of WT mice (western blot, IFA of frozen section); assay type: in vivo, mouse
Procedure: HCMEC-D3 and HBMVEC cells were plated in 12-well plates and were grown until they reached 100% confluency. The media was replaced with fresh media containing 1 μM of Lexiscan® or NECA with proper vehicle control (DMSO) for up to 72 hours. Cells were lysed by lysis buffer […] containing protease inhibitor cocktail and stored for later use (−70° C.). For cytoskeletal fraction analysis, cells were lysed in CSK buffer (100 mM NaCl, 300 mM sucrose, 3 mM MgCl2, 10 mM PIPES, pH 6.8). For brain samples, half of the brain was homogenized and lysed with […] lysis buffer and centrifuged at 17,000 g for 20 minutes and 1:10 diluted samples were used for analysis. Sample was loaded on 7% SDS PAGE at 100 V for 1 hour and transferred to the nitrocellulose paper. It was blocked with 1% BSA and incubated with anti-P-gp antibody (Genetex, 1:2000) overnight. Subsequently, it was washed with TBST and incubated with anti-rabbit secondary antibody (1:2000) for 1 hour. It was washed with TBST and developed with ECL substrate and exposed to x-ray film. Anti-GAPDH or −β-actin antibody was used as loading control. The intensity of band was analyzed with densitometric analysis and plotted as a graph for analysis of time-course effect of AR signaling on P-gp expression.
Mice were treated with Lexiscan® or NECA at different time points and were infused with ice-cold PBS and sacrificed. Half of the brain was cut and put in the cassette and filled with OCT solution. Samples were snap-frozen with liquid nitrogen, cut with cryostat (10 μm) and fixed with acetone for 5 minutes, and incubated with C219 for P-gp stain (1:100) and Glut1 for endothelial cell marker (1:100) at 4° C. overnight. Sections were washed with PBS and additionally stained with secondary antibody conjugated with fluorochrome. Full images of the brain sections were visualized and recorded using Aperio Scan Scope (Leica Biosystems).

P-gp [4] = assay: Rho123 accumulation in MCF7 breast cancer cells; assay type: cell-based, human; conditions: 0.025 μM Lexiscan® concomitant with Rho123, vs vehicle control
P-gp [5] = assay: P-gp solubility and secretion in HBMVEC (RIPA lysate, CSK cytoskeletal fraction, media); assay type: cell-based, human
From the text: FIG. 8A is a schematic diagram of the experimental procedure for analysis of Lexiscan®'s effect on P-gp solubility and excretion in primary brain endothelial cells (“HBMVEC”). FIGS. 8B-8C are western blots and graphs summarizing the experimental result of each western blot. FIGS. 8B-8C show the analysis of P-gp expression of HBMVEC upon activation with Lexiscan® at different time points after lysis with RIPA buffer (FIG. 8B) or CSK buffer to measure P-gp levels in the cytoskeletal fraction (FIG. 8C). Band intensity was normalized to GAPDH and graphed. […] Band intensity was normalized using GAPDH and plotted. FIG. 8E is a western blot of secreted P-gp in HBMVEC upon activation with Lexiscan® in absence or presence of an MMP9 inhibitor: both short and long exposures of western blot from MMP9 inhibitor-treated samples are shown. Band intensity was plotted as a graph. FIG. 8F is a western blot showing the results of an Immunoprecipitation assay of MMP9 with lysate from HBMVEC treated with vehicle (control) or 1 μM of Lexiscan® for 5 minutes. P-gp was pulled down using anti-P-gp antibody and immunoblotted with an anti-MMP9 antibody. FIG. 8G is an immunofluorescence microscopy image of MMP9 on HBMVEC treated with control (top panel) or 1 μM of Lexiscan® (middle panel) for 5 minutes. Cells were stained with P-gp (green) and MMP9 (red). Nucleus was counterstained with DAPI (blue). […] Cell-surface colocalization of P-gp and MMP9 is indicated by arrows. The scale bars indicates 25 μm (upper and middle panels); 5 μm (bottom panels). FIG. 8H is a graph summarizing the intensity of fluorescence of MMP9 from FIG. 8G. Fluorescent intensity of MMP9 was quantified and plotted as graph (n=20). **P<0.01 (2-tailed Student's t test, 1 representative result of 3 different experiments).
as §1

MMP9 [6] = assay: MMP9 in mouse brain endothelial cells after intravenous injection (IFA); assay type: in vivo; conditions: 0.05 mg/kg i.v.; 5 minutes
Procedure: Vehicle control (DMSO) or 0.05 mg/kg of Lexiscan® was injected intravenously into mice. Five minutes later, mice were sacrificed and frozen sections of the brain were stained with anti-MMP9 (red) or anti-GLUT-1 (green) antibodies. Nucleus was counterstained with DAPI (blue). The scale bar indicates 50 μm.

[7] = cited from earlier work

SMILES | MMP9 expression (MMP9 [1]) | P-gp expression (mean fluorescent intensity) (P-gp [2]) | Interaction between P-gp and MMP9 (P-gp and MMP9) | Time at which effect on P-gp occurred (P-gp [3]) | P-gp expression in brain endothelial cells (P-gp [3]; Lexiscan® treatment, 5 to 60 minutes) | Rho123 accumulation (P-gp [4]) | Secreted P-gp released into the media (P-gp [5]) | P-gp level in cytoskeletal fraction (CSK buffer) (P-gp [5]; up to 60 minutes) | P-gp level in whole lysate (RIPA buffer) (P-gp [5]; up to 60 minutes) | MMP9 in mouse brain endothelial cells (MMP9 [6]) | half-life [7] | P-gp expression level in brain (P-gp [3]; 2 and 18 hours after NECA)
CNC(=O)c1cnn(-c2nc(N)c3ncn([C@@H]4O[C@H](CO)[C@@H](O)[C@H]4O)c3n2)c1 [Lexiscan®, 1-[6-amino-9-[(2R,3R,4S,5R)-3,4-dihydroxy-5-(hydroxymethyl)oxolan-2-yl]purin-2-yl]-N-methylpyrazole-4-carboxamide] | Increased expression of MMP9 was observed beginning at 5 minutes | significantly down-regulates P-gp expression in freshly isolated and cultured colonic organoids | induced rapid interaction between P-gp and MMP9 | ≤ 5 min | decreased P-gp expression in brain endothelial cells in WT mice between 5 and 15 minutes; this was recovered by 30 minutes | significant Rho123 accumulation occurred by 15 minutes and 60 minutes | An increase in secreted P-gp that was released into the media | P-gp levels increased at from 5 to 15 minutes, returned to baseline by 30 minutes | P-gp levels declined compared with vehicle control beginning at 5 minutes and were maintained for up to 60 minutes | rapid increase of MMP9 |  | 
CCNC(=O)[C@H]1O[C@@H](n2cnc3c(N)ncnc32)[C@H](O)[C@@H]1O [NECA, (2S,3S,4R,5R)-5-(6-aminopurin-9-yl)-N-ethyl-3,4-dihydroxyoxolane-2-carboxamide] |  |  |  |  |  |  |  |  |  |  | 5 h | gradual decrease in P-gp expression level, beginning at 2 hours; this was maintained for up to 18 hours
